The target in data set [1] is T1, SARS CoV-2 PLpro (Severe acute respiratory syndrome coronavirus 2 (2019-nCoV) (SARS-CoV-2), UniProt P0DTD1). Nature of the data set: cell-based. Particulars: read-out: FlipGFP-PLpro assay EC50.
The target of data set [2] is T1, SARS CoV-2 PLpro. Nature of the data set: biochemical. Particulars: Table 8; read-out: FRET Enzymatic assay IC50.
Data set [3] has as its system SARS-CoV-2, Isolate USA-WA1/2020. Description: microbe, parasite or virus in culture. Format: cell-based. The note with it: for EC50: Severe acute respiratory syndrome coronavirus 2, Vero C1008, read-out: EC50 against infectious SARS-CoV-2 (plaque formation).
Another data set relates to Vero E6 cells. The note with it: African green monkey.
The conditions of data set [4]: for In vitro CIint / Scale-up CIint: human.
Data set [5] addresses T1, SARS CoV-2 PLpro. Nature of the data set: biochemical. Format: binding.
The nature of data set [6]: in vitro. The note with it: human, microsomes.
Data set [7] addresses T1, SARS CoV-2 PLpro. Format: biochemical. Particulars: 20 μM.
A further data set concerns the target human USP7 (Homo sapiens (Human), UniProt Q93009). Nature of the data set: USP7 selectivity counter-assay (Ub-AMC). Format: biochemical. Particulars: catalytic domain of human USP7; up to 30 μM for CPI-169. As for the experimental part: Assay conditions were similar to the PLpro primary assay, with the following substitutions: USP7 assays contained 4 nM USP7 and 0.5 uM Ub-AMC (Boston Biochem); USP14 assays contained 1.7 uM USP14, 4 uM Ub-AMC, and the addition of 5% glycerol to Buffer B. PLpro activity with ISG15-AMC and Ub-AMC were assayed in a manner similar to the PLpro primary assay. PLpro and substrate concentrations were modified as follows: 80 nM PLpro was assayed with 0.5 uM Ub-AMC, and 4 nM PLpro was assayed with 0.5 uM ISG15-AMC.
Assay conditions were similar to the PLpro primary assay, with the following substitutions: USP7 assays contained 4 nM USP7 and 0.5 uM Ub-AMC (Boston Biochem); USP14 assays contained 1.7 uM USP14, 4 uM Ub-AMC, and the addition of 5% glycerol to Buffer B.PLpro activity with ISG15-AMC and Ub-AMC were assayed in a manner similar to the PLpro primary assay. PLpro and substrate concentrations were modified as follows: 80 nM PLpro was assayed with 0.5 uM Ub-AMC, and 4 nM PLpro was assayed with 0.5 μM ISG15-AMC.

A short description of data set [8]: in vitro. The note with it: human, Caco-2.
The subject of a further data set is SARS-CoV-2 USA/WA1/2020. Nature of the data set: microbe, parasite or virus in culture. Format: cell-based. The note with it: for IC50: Severe acute respiratory syndrome coronavirus 2, 48 h, read-out: IC50 (viral RNA by RT-qPCR). On the technique in general: In qPCR the cycle at which signal appears reflects the starting amount.
For the next data set, the system named is A549-hACE2 cells. Description: Cytotoxicity in A549-hACE2 cells (CellTiter-Glo). Particulars: assay conditions.

Bounds are passed on as bounds.

Chain of human USP7 (Q93009 214-521 limits assumed): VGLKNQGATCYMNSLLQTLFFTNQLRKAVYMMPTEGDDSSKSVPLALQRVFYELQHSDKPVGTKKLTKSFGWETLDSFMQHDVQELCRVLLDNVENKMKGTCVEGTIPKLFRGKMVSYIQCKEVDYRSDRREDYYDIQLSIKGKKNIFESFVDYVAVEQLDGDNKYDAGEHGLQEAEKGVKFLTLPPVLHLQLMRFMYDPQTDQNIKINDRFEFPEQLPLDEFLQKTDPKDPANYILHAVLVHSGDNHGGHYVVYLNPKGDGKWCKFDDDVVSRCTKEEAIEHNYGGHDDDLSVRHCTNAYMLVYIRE

As for `Cc1ccc(OC2CNC2)cc1C(=O)N[C@H](C)c1cccc(-c2ccc(CN[C@H]3CC[C@@H](C(=O)OC[C@H]4O[C@@H](n5ccc(NO)nc5=O)[C@H](O)[C@@H]4O)C3)s2)c1`, the concentration for a half-maximal effect (EC50) on SARS CoV-2 PLpro [1] is more than 20 µM. Moreover, the IC50 at SARS CoV-2 PLpro [2] is 0.75 ± 0.05 µM.
Turning to `Cc1ccc(OC2CNC2)cc1C(=O)N[C@H](C)c1cccc(-c2ccc(CN[C@H]3CC[C@@H](C(=O)NCCOCCOCCOCCOCCNc4cccc5c4C(=O)N(C4CCC(=O)NC4=O)C5=O)C3)s2)c1` (stereo partly drawn), the EC50 at SARS CoV-2 PLpro [1] is more than 20 µM. Besides, on SARS CoV-2 PLpro [2], the IC50 worked out at 1.67 ± 0.33 µM.
Take `Cc1ccc(OC2CNC2)cc1C(=O)N[C@H](C)c1cccc(-c2ccc(CN3CCCC3)o2)c1`: at SARS CoV-2 PLpro [1], the EC50 was more than 60 µM. For the same compound, on SARS CoV-2 PLpro [2], the IC50 worked out at 4.58 ± 0.92 µM.
Regarding `Cc1ccc(OC2CNC2)cc1C(=O)N[C@H](C)c1cccc(-c2ccc(CN[C@H]3CC[C@@H](O)C3)o2)c1`, the EC50 on SARS CoV-2 PLpro [1] was more than 60 µM. The IC50 at SARS CoV-2 PLpro [2] turned out to be 3.02 ± 0.58 µM.
Take `Cc1ccc(NC2CNC2)cc1C(=O)N[C@H](C)c1cccc(-c2ccc(CN[C@H]3CC[C@@H](O)C3)s2)c1` (single isomer, unassigned) [XR8-89]: the “antiviral activity, in words” value in data set [3] is listed as “superior antiviral potency to GRL017”. The “concentration at which no toxicity was observed” value in the data set on Vero E6 cells was less than 50 µM.
For `Cc1ccc(NC2CNC2)cc1C(=O)N[C@H](C)c1cccc(-c2cccs2)c1` (single isomer, unassigned) [ZN-3-80], in data set [4], the “In vitro CIint” value turned out to be 5.64 μL/min/mg protein and the “Scale-up CIint” value stood at 7.07 mL/min/kg. In data set [4] (microsomes), the “stability in human liver microsome stability assays, in words” value is recorded as “more stable than GRL0617”. For the same compound, the Ave ka at SARS CoV-2 PLpro [5] (SPR association rate, average of replicates) was found to be 351000 M⁻¹ s⁻¹. Also, on SARS CoV-2 PLpro [5] (SPR association rate, replicate 1), the ka1 is 291000 M⁻¹ s⁻¹. Further, at SARS CoV-2 PLpro [5] (SPR association rate, replicate 2), the ka2 stood at 334000 M⁻¹ s⁻¹. The compound further returned a ka3 on SARS CoV-2 PLpro [5] (SPR association rate, replicate 3) of 303000 M⁻¹ s⁻¹. At SARS CoV-2 PLpro [5] (SPR association rate, replicate 4), this compound showed a ka4 of 477000 M⁻¹ s⁻¹. The Ave kd at SARS CoV-2 PLpro [5] (SPR dissociation rate, average of replicates) worked out at 0.327 s⁻¹. The kd1 on SARS CoV-2 PLpro [5] (SPR dissociation rate, replicate 1) came to 0.318 s⁻¹. Besides, on SARS CoV-2 PLpro [5] (SPR dissociation rate, replicate 2), the kd2 was found to be 0.369 s⁻¹. Also, the kd3 on SARS CoV-2 PLpro [5] (SPR dissociation rate, replicate 3) worked out at 0.290 s⁻¹. For the same compound, at SARS CoV-2 PLpro [5] (SPR dissociation rate, replicate 4), the kd4 was determined as 0.332 s⁻¹. Besides, in the data set “in vitro [6]”, the half-life came out at 4.1 h.
`CC(C)c1cc(C(C)C)c(CC(=O)NS(=O)(=O)Oc2c(C(C)C)cccc2C(C)C)c(C(C)C)c1` [Avasimibe]: at SARS CoV-2 PLpro [7], the “result in the PLpro screen, in words” value is listed as “weak PLpro inhibitors”.
On to `CCS(=O)(=O)N1CCC([C@@H](C)n2c(C)c(C(=O)NCc3c(OC)cc(C)[nH]c3=O)c3ccccc32)CC1` [CPI-169], for which the “inhibition of USP7-catalyzed Ub-AMC hydrolysis” value at human USP7 was “not able to inhibit USP7 up to a concentration of 30 μM”.
In the data set “in vitro [8]”, `C[C@H]1O[C@@H](O[C@H]2[C@@H](O)C[C@H](O[C@H]3[C@@H](O)C[C@H](O[C@H]4CC[C@@]5(C)[C@H](CC[C@@H]6[C@@H]5C[C@@H](O)[C@]5(C)[C@@H](C7=CC(=O)OC7)CC[C@]65O)C4)O[C@@H]3C)O[C@@H]2C)C[C@H](O)[C@@H]1O` [Digoxin] came in with a Papp A→B of 0.4 ×10⁻⁶ cm/s and a Papp B→A of 10.4 ×10⁻⁶ cm/s.
With `Cc1ccc(N)cc1C(=O)N[C@H](C)c1cccc2ccccc12` [GRL0617, reference compound], the “inhibition of USP7-catalyzed Ub-AMC hydrolysis” value at human USP7 is “did not inhibit”. The EC50 in data set [3] stood at 21.7 ± 1.6 µM. For the same compound, the IC50 with SARS-CoV-2 USA/WA1/2020 is more than 20 µM. In “in vitro [8]”, this compound registered a Papp A→B of 12.4 ×10⁻⁶ cm/s and a Papp B→A of 12.9 ×10⁻⁶ cm/s.
For `CC(C)NCC(O)COc1cccc2ccccc12` (stereo not drawn) [Propranolol], in the data set “in vitro [8]”, the Papp A→B came to 17.9 ×10⁻⁶ cm/s, the Papp B→A worked out at 18.3 ×10⁻⁶ cm/s and the efflux ratio was found to be 1.02.
Regarding `Cc1ccc(NC2CNC2)cc1C(=O)N[C@H](C)c1cccc(-c2ccc(CNC3CCCC3)s2)c1` [XR8-23], in [4], the “In vitro CIint” value worked out at 5.89 μL/min/mg protein and the “Scale-up CIint” value is recorded as 7.38 mL/min/kg. The “concentration at which no toxicity was observed” value with Vero E6 cells was less than 50 µM. In “in vitro [8]”, the Papp A→B came out at 0.16 ×10⁻⁶ cm/s and the apparent permeability from basolateral to apical (Papp B→A) is 1.56 ×10⁻⁶ cm/s. For the same compound, the “concentration at which cytotoxicity was not observed” value in the data set with A549-hACE2 cells was less than 10 µM. The compound also showed a half-life in the data set “in vitro [6]” of 3.92 h.
As to `Cc1ccc(NC2CNC2)cc1C(=O)N[C@H](C)c1cccc(-c2ccc(CN3CCCC3)s2)c1` [XR8-24], in data set [4], the “In vitro CIint” value was determined as 9.60 μL/min/mg protein and the “Scale-up CIint” value turned out to be 12.04 mL/min/kg. In addition, the EC50 in data set [3] is 2.5 ± 1.9 µM. The “effect of treatment on viral RNA versus remdesivir (10 μM)” value in the data set on SARS-CoV-2 USA/WA1/2020 (20 μM) is “not significantly different from that of remdesivir”. Further, the IC50 in the data set on SARS-CoV-2 USA/WA1/2020 came out at 1.2 ± 0.2 µM. In addition, the “concentration at which no toxicity was observed” value with Vero E6 cells is less than 50 µM. Also, in “in vitro [8]”, the Papp A→B stood at 0.14 ×10⁻⁶ cm/s and the Papp B→A amounted to 3.06 ×10⁻⁶ cm/s. Further, the “concentration at which cytotoxicity was not observed” value in the data set on A549-hACE2 cells is less than 50 µM. In “in vitro [6]”, this compound came in with a half-life of 2.41 h.
With `Cc1ccc(NC2CNC2)cc1C(=O)N[C@H](C)c1cccc(-c2ccc(CN3CC[C@H](O)C3)s2)c1` [XR8-57], in [4], the “In vitro CIint” value came out at 0.27 μL/min/mg protein and the “Scale-up CIint” value stood at 0.34 mL/min/kg. Besides, the half-life in the data set “in vitro [6]” came out at 85.4 h.
For `CCOc1nc2cccc(C(=O)O)c2n1Cc1ccc(-c2ccccc2-c2nnn[nH]2)cc1` [candesartan], the “result in the PLpro screen, in words” value at SARS CoV-2 PLpro [7] is “weak PLpro inhibitors”.

Usually EC50 stands for the concentration that produces a half-maximal response. Broadly, the IC50 is the concentration needed to halve the response being measured. A word on the half-life: it is how long it takes for the measured level to halve. The term Papp A→B denotes how fast a substance crosses the layer from the apical side. One may read the Papp B→A as how fast a substance crosses the layer from the basolateral side. As a reminder, the efflux ratio is the permeability from basolateral to apical divided by that in the opposite direction, in the common usage.

The values are drawn from patent publication US20240166598A1, “COMPOUNDS, COMPOSITIONS, AND METHODS OF USING THE SAME” (priority 2021, published 2024).
